# Tested on: Metabolism protein genes
# Assay: DNA chip mRNA expression in yeast, metabolism protein genes (Table 7)
# Assay type: cell-based, Saccharomyces cerevisiae S288C
# In short: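 Ratios compare mRNA levels in stressed and control S. cerevisiae. Each toxicant was applied for two hours to log-phase cultures at 25° C. at a sub-lethal, growth-inhibiting level; fluorescent cDNA (Cy3- or Cy5-dUTP) was hybridized to a genome-wide yeast chip for over 12 h at 65° C.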
compound,measurement,setting,value
"N#Cc1c(Cl)c(Cl)c(Cl)c(C#N)c1Cl [(9), 2,4,5,6-tetrachloro-1,3-benzenedicarbonitrile]",The level of expressed mRNA in the presence of chemical substance/The level of expressed mRNA in the absence of chemical substance,yeast gene YAL012W,4.7
same,The level of expressed mRNA in the presence of chemical substance/The level of expressed mRNA in the absence of chemical substance,yeast gene YAL038W,0.1
same,The level of expressed mRNA in the presence of chemical substance/The level of expressed mRNA in the absence of chemical substance,yeast gene YAL044C,0.4
same,The level of expressed mRNA in the presence of chemical substance/The level of expressed mRNA in the absence of chemical substance,yeast gene YAL054C,8.9
same,The level of expressed mRNA in the presence of chemical substance/The level of expressed mRNA in the absence of chemical substance,yeast gene YAR071W,0.3
same,The level of expressed mRNA in the presence of chemical substance/The level of expressed mRNA in the absence of chemical substance,yeast gene YBL001C,1.5
same,The level of expressed mRNA in the presence of chemical substance/The level of expressed mRNA in the absence of chemical substance,yeast gene YBL033C,6.6
same,The level of expressed mRNA in the presence of chemical substance/The level of expressed mRNA in the absence of chemical substance,yeast gene YBL086C,3.3
same,level of expressed mRNA in the presence/in the absence of chemical substance,yeast gene YBR003W,1.0
same,level of expressed mRNA in the presence/in the absence of chemical substance,yeast gene YBR011C,2.2
same,The level of expressed mRNA in the presence of chemical substance/The level of expressed mRNA in the absence of chemical substance,yeast gene YBR014C,1.3
same,The level of expressed mRNA in the presence of chemical substance/The level of expressed mRNA in the absence of chemical substance,yeast gene YBR023C,0.3
same,The level of expressed mRNA in the presence of chemical substance/The level of expressed mRNA in the absence of chemical substance,yeast gene YBR029C,2.0
same,The level of expressed mRNA in the presence of chemical substance/The level of expressed mRNA in the absence of chemical substance,yeast gene YBR035C,2.2
same,The level of expressed mRNA in the presence of chemical substance/The level of expressed mRNA in the absence of chemical substance,yeast gene YBR068C,0.8
same,The level of expressed mRNA in the presence of chemical substance/The level of expressed mRNA in the absence of chemical substance,yeast gene YBR183W,0.4
same,The level of expressed mRNA in the presence of chemical substance/The level of expressed mRNA in the absence of chemical substance,yeast gene YBR222C,0.7
same,The level of expressed mRNA in the presence of chemical substance/The level of expressed mRNA in the absence of chemical substance,yeast gene YBR256C,18.1
same,The level of expressed mRNA in the presence of chemical substance/The level of expressed mRNA in the absence of chemical substance,yeast gene YBR296C,0.4
same,The level of expressed mRNA in the presence of chemical substance/The level of expressed mRNA in the absence of chemical substance,yeast gene YCL009C,0.9
same,The level of expressed mRNA in the presence of chemical substance/The level of expressed mRNA in the absence of chemical substance,yeast gene YCL064C,1.7
same,level of expressed mRNA in the presence/in the absence of chemical substance,yeast gene YCR010C,0.9
same,level of expressed mRNA in the presence/in the absence of chemical substance,yeast gene YCR034W,0.1
same,The level of expressed mRNA in the presence of chemical substance/The level of expressed mRNA in the absence of chemical substance,yeast gene YCR036W,2.6
same,The level of expressed mRNA in the presence of chemical substance/The level of expressed mRNA in the absence of chemical substance,yeast gene YCR048W,0.8
same,The level of expressed mRNA in the presence of chemical substance/The level of expressed mRNA in the absence of chemical substance,yeast gene YCR098C,1.4
same,The level of expressed mRNA in the presence of chemical substance/The level of expressed mRNA in the absence of chemical substance,yeast gene YDL124W,3.3
same,The level of expressed mRNA in the presence of chemical substance/The level of expressed mRNA in the absence of chemical substance,yeast gene YDR009W,1.3
same,The level of expressed mRNA in the presence of chemical substance/The level of expressed mRNA in the absence of chemical substance,yeast gene YDR019C,0.4
same,level of expressed mRNA in the presence/in the absence of chemical substance,yeast gene YDR050C,0.4
same,level of expressed mRNA in the presence/in the absence of chemical substance,yeast gene YDR123C,0.5
same,level of expressed mRNA in the presence/in the absence of chemical substance,yeast gene YDR178W,0.9
same,level of expressed mRNA in the presence/in the absence of chemical substance,yeast gene YDR277C,0.2
same,level of expressed mRNA in the presence/in the absence of chemical substance,yeast gene YDR284C,0.9
same,level of expressed mRNA in the presence/in the absence of chemical substance,yeast gene YDR345C,0.2
same,The level of expressed mRNA in the presence of chemical substance/The level of expressed mRNA in the absence of chemical substance,yeast gene YDR380W,0.2
same,level of expressed mRNA in the presence/in the absence of chemical substance,yeast gene YDR400W,1.1
same,level of expressed mRNA in the presence/in the absence of chemical substance,yeast gene YDR408C,0.3
same,level of expressed mRNA in the presence/in the absence of chemical substance,yeast gene YDR483W,0.4
same,The level of expressed mRNA in the presence of chemical substance/The level of expressed mRNA in the absence of chemical substance,yeast gene YDR487C,2.7
same,The level of expressed mRNA in the presence of chemical substance/The level of expressed mRNA in the absence of chemical substance,yeast gene YDR497C,0.4
same,The level of expressed mRNA in the presence of chemical substance/The level of expressed mRNA in the absence of chemical substance,yeast gene YDR502C,1.6
same,The level of expressed mRNA in the presence of chemical substance/The level of expressed mRNA in the absence of chemical substance,yeast gene YDR516C,1.8
same,level of expressed mRNA in the presence/in the absence of chemical substance,yeast gene YEL063C,0.8
same,The level of expressed mRNA in the presence of chemical substance/The level of expressed mRNA in the absence of chemical substance,yeast gene YER026C,0.9
same,The level of expressed mRNA in the presence of chemical substance/The level of expressed mRNA in the absence of chemical substance,yeast gene YER053C,1.3
same,The level of expressed mRNA in the presence of chemical substance/The level of expressed mRNA in the absence of chemical substance,yeast gene YER069W,0.8
same,level of expressed mRNA in the presence/in the absence of chemical substance,yeast gene YER081W,1.8
same,The level of expressed mRNA in the presence of chemical substance/The level of expressed mRNA in the absence of chemical substance,yeast gene YER096W,7.5
same,level of expressed mRNA in the presence/in the absence of chemical substance,yeast gene YER120W,0.8
same,The level of expressed mRNA in the presence of chemical substance/The level of expressed mRNA in the absence of chemical substance,yeast gene YER178W,1.7
same,level of expressed mRNA in the presence/in the absence of chemical substance,yeast gene YFL011W,0.3
same,The level of expressed mRNA in the presence of chemical substance/The level of expressed mRNA in the absence of chemical substance,yeast gene YFL014W,13.1
same,The level of expressed mRNA in the presence of chemical substance/The level of expressed mRNA in the absence of chemical substance,yeast gene YFL030W,24.5
same,The level of expressed mRNA in the presence of chemical substance/The level of expressed mRNA in the absence of chemical substance,yeast gene YFL031W,1.0
same,The level of expressed mRNA in the presence of chemical substance/The level of expressed mRNA in the absence of chemical substance,yeast gene YFL056C,162.3
same,The level of expressed mRNA in the presence of chemical substance/The level of expressed mRNA in the absence of chemical substance,yeast gene YFL057C,51.8
same,The level of expressed mRNA in the presence of chemical substance/The level of expressed mRNA in the absence of chemical substance,yeast gene YFR047C,3.0
same,level of expressed mRNA in the presence/in the absence of chemical substance,yeast gene YGL012W,0.3
same,The level of expressed mRNA in the presence of chemical substance/The level of expressed mRNA in the absence of chemical substance,yeast gene YGL022W,0.9
same,The level of expressed mRNA in the presence of chemical substance/The level of expressed mRNA in the absence of chemical substance,yeast gene YGL026C,3.7
same,level of expressed mRNA in the presence/in the absence of chemical substance,yeast gene YGL115W,1.2
same,The level of expressed mRNA in the presence of chemical substance/The level of expressed mRNA in the absence of chemical substance,yeast gene YGL126W,1.6
same,The level of expressed mRNA in the presence of chemical substance/The level of expressed mRNA in the absence of chemical substance,yeast gene YGL202W,1.3
same,The level of expressed mRNA in the presence of chemical substance/The level of expressed mRNA in the absence of chemical substance,yeast gene YGL209W,0.6
same,The level of expressed mRNA in the presence of chemical substance/The level of expressed mRNA in the absence of chemical substance,yeast gene YGL248W,0.2
same,The level of expressed mRNA in the presence of chemical substance/The level of expressed mRNA in the absence of chemical substance,yeast gene YGL252C,2.7
same,The level of expressed mRNA in the presence of chemical substance/The level of expressed mRNA in the absence of chemical substance,yeast gene YGL254W,3.1
same,The level of expressed mRNA in the presence of chemical substance/The level of expressed mRNA in the absence of chemical substance,yeast gene YGR037C,1.7
same,The level of expressed mRNA in the presence of chemical substance/The level of expressed mRNA in the absence of chemical substance,yeast gene YGR055W,5.0
same,level of expressed mRNA in the presence/in the absence of chemical substance,yeast gene YGR096W,0.8
same,level of expressed mRNA in the presence/in the absence of chemical substance,yeast gene YGR191W,0.1
same,The level of expressed mRNA in the presence of chemical substance/The level of expressed mRNA in the absence of chemical substance,yeast gene YGR194C,2.4
same,level of expressed mRNA in the presence/in the absence of chemical substance,yeast gene YGR204W,0.9
same,The level of expressed mRNA in the presence of chemical substance/The level of expressed mRNA in the absence of chemical substance,yeast gene YGR256W,3.4
same,The level of expressed mRNA in the presence of chemical substance/The level of expressed mRNA in the absence of chemical substance,yeast gene YGR282C,0.8
same,level of expressed mRNA in the presence/in the absence of chemical substance,yeast gene YGR288W,1.6
same,level of expressed mRNA in the presence/in the absence of chemical substance,yeast gene YHR025W,0.2
same,The level of expressed mRNA in the presence of chemical substance/The level of expressed mRNA in the absence of chemical substance,yeast gene YHR111W,4.5
same,level of expressed mRNA in the presence/in the absence of chemical substance,yeast gene YHR123W,0.8
same,The level of expressed mRNA in the presence of chemical substance/The level of expressed mRNA in the absence of chemical substance,yeast gene YHR137W,0.2
same,The level of expressed mRNA in the presence of chemical substance/The level of expressed mRNA in the absence of chemical substance,yeast gene YHR174W,1.0
same,The level of expressed mRNA in the presence of chemical substance/The level of expressed mRNA in the absence of chemical substance,yeast gene YHR176W,6.3
same,level of expressed mRNA in the presence/in the absence of chemical substance,yeast gene YIL006W,0.9
same,The level of expressed mRNA in the presence of chemical substance/The level of expressed mRNA in the absence of chemical substance,yeast gene YIL045W,2.1
same,The level of expressed mRNA in the presence of chemical substance/The level of expressed mRNA in the absence of chemical substance,yeast gene YIL107C,3.5
same,The level of expressed mRNA in the presence of chemical substance/The level of expressed mRNA in the absence of chemical substance,yeast gene YIL154C,2.4
same,The level of expressed mRNA in the presence of chemical substance/The level of expressed mRNA in the absence of chemical substance,yeast gene YIL155C,2.5
same,The level of expressed mRNA in the presence of chemical substance/The level of expressed mRNA in the absence of chemical substance,yeast gene YIL167W,6.9
same,The level of expressed mRNA in the presence of chemical substance/The level of expressed mRNA in the absence of chemical substance,yeast gene YIL168W,7.8
same,The level of expressed mRNA in the presence of chemical substance/The level of expressed mRNA in the absence of chemical substance,yeast gene YIR031C,2.6
same,The level of expressed mRNA in the presence of chemical substance/The level of expressed mRNA in the absence of chemical substance,yeast gene YIR032C,2.6
same,The level of expressed mRNA in the presence of chemical substance/The level of expressed mRNA in the absence of chemical substance,yeast gene YIR034C,3.2
same,The level of expressed mRNA in the presence of chemical substance/The level of expressed mRNA in the absence of chemical substance,yeast gene YIR036C,3.3
same,The level of expressed mRNA in the presence of chemical substance/The level of expressed mRNA in the absence of chemical substance,yeast gene YJL031C,4.7
same,The level of expressed mRNA in the presence of chemical substance/The level of expressed mRNA in the absence of chemical substance,yeast gene YJL045W,9.7
same,The level of expressed mRNA in the presence of chemical substance/The level of expressed mRNA in the absence of chemical substance,yeast gene YJL060W,5.3
same,The level of expressed mRNA in the presence of chemical substance/The level of expressed mRNA in the absence of chemical substance,yeast gene YJL068C,6.5
same,The level of expressed mRNA in the presence of chemical substance/The level of expressed mRNA in the absence of chemical substance,yeast gene YJL088W,3.2
same,The level of expressed mRNA in the presence of chemical substance/The level of expressed mRNA in the absence of chemical substance,yeast gene YJL099W,3.1
